In the test the test system is Mouse 2C CD8+ T cell-vesicle binding, flow cytometry. In words: modulators of CD8 T cell-vesicle binding, dose response, powder samples, mouse 2C CD8+ cells (AID 504565).
The mark [1] stands for this setting: CD8+ 90th percentile fluorescence.
[2] abbreviates: double positive events percentage.

In the case of `O=C(O)C1CCC(Cn2c(SCc3cc(=O)n4cc(Cl)ccc4n3)nc3ccsc3c2=O)CC1` (stereo unspecified), the EC50 is, setting by setting: under setting [1], 34.8 µM; under setting [2], 33.7 µM.
`CCOCC(=O)Nc1ccc(S(=O)(=O)N2CCC(c3nc4ccccc4[nH]3)CC2)cc1`: the EC50 runs as follows: under setting [1], 0.6 µM; under setting [2], 0.63 µM.
As for `COCc1c(C(=O)Nc2cccc(S(=O)(=O)N3CCCCC3)c2)oc2ccccc12`, the EC50 reads like this: under setting [1], 6.43 µM; under setting [2], 7.96 µM.
As to `O=C(NCC1CCCCC1)c1ccc(Cl)c(S(=O)(=O)N2CCOCC2)c1`, the EC50 is, setting by setting: under setting [1], 21.4 µM; under setting [2], 17.1 µM.
In turn, `CCOc1ccc(-c2nc(N)ncc2-c2ccccc2)c(O)c1` displayed an EC50 under setting [1] of 0.239 µM.
In the case of `CCN(CC)S(=O)(=O)c1ccc(Cl)c(NC(=O)COC(=O)C2CCCCC2)c1`, the EC50 by setting is: under setting [1], 38.8 µM; under setting [2], 37.6 µM.
Turning to `CCOC(=O)c1ccc(S(=O)(=O)N2CCN(C3CCCC3)CC2)cc1`, the half-maximal effective concentration (EC50) runs as follows: under setting [1], 14 µM; under setting [2], 10.4 µM.
Turning to `CCOC(=O)C1CCCN(S(=O)(=O)c2ccc(F)c(C(=O)Nc3ccc(F)c(F)c3)c2)C1` (stereo unspecified), the EC50 came to 37.7 µM under setting [1] and 34.4 µM under setting [2].
Take `CN(CC(=O)Nc1cc(S(=O)(=O)N2CCCC2)ccc1Cl)Cc1ccc2c(c1)OCO2`: the EC50 amounted to 8 µM under setting [1] and 9.84 µM under setting [2].
On to `COc1ccc(S(=O)(=O)N2CCCC2C(=O)Nc2ccc(C(C)=O)cc2)cc1` (stereo unspecified), for which the EC50 reads like this: under setting [1], 20.7 µM; under setting [2], 20.2 µM.
For `O=C(COC(=O)C12CC3CC(CC(Br)(C3)C1)C2)Nc1cccc(S(=O)(=O)N2CCOCC2)c1` the same measures were 8.26 µM and 3.22 µM.
On the same counts, the results for `O=C(c1ccc(N2C(=O)C3CC=C(Cl)CC3C2=O)cc1)N1CCCCC1` (stereo unspecified) are 34.9 µM and 39.8 µM.
Compound `Cc1cc(Cl)c(OCCCSc2nc(C)cc(=O)[nH]2)c(Br)c1` displayed an EC50 under setting [1] of 22.6 µM.
For the compound `Cc1ccccc1C(=O)N1CCC(C(=O)Nc2ccc(C)c(S(=O)(=O)N3CCCCC3)c2)CC1`, the EC50 was 17 µM under setting [1] and 16.3 µM under setting [2].

One may read the EC50 as the midpoint of the concentration-response curve. A low value points to greater potency.

These data come from PubChem BioAssay AID504565 (NMMLSC, 2011).
